Test results as given in ChEMBL document CHEMBL2029300, “Discovery of a Potent Retinoid X Receptor Antagonist Structurally Closely Related to RXR Agonist NEt-3IB” (ACS Med Chem Lett, 2011).
Calls of active or inactive are those of the source. The calls are words filed in the database; no cut-off is given here.

What was measured:
[1] = target: T1, Retinoic acid receptor RXR-alpha (Homo sapiens) (UniProt P19793); assay: (§1) Antagonist activity at RXRalpha expressed in COS1 cells assessed as inhibition of NEt-TMN-induced luciferase activity after 18 hrs by reporter gene assay relative to LGD1069; format: functional, cell-based; conditions: COS-1
T1 sequence (whole entry): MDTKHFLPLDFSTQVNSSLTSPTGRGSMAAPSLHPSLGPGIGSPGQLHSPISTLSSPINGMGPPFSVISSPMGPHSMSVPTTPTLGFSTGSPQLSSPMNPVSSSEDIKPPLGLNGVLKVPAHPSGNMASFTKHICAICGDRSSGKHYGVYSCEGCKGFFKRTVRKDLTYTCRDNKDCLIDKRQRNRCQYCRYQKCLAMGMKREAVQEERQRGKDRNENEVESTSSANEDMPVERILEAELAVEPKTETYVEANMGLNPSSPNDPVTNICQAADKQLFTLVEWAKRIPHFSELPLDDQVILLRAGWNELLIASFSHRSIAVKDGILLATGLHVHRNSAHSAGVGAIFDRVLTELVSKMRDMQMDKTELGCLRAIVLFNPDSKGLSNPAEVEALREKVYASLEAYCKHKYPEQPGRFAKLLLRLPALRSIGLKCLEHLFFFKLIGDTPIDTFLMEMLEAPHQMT

[2] = target: T2, Retinoic acid receptor RXR-alpha (Homo sapiens, UniProt P19793); assay: as §1; format: functional, cell-based, COS-1
T2 sequence (P19793 whole entry): T1 sequence (whole entry)

[3] = target: T2, Retinoic acid receptor RXR-alpha; assay: Antagonist activity at RXRalpha expressed in COS1 cells assessed as inhibition of NEt-3IP-induced luciferase activity after 18 hrs by reporter gene assay relative to LGD1069; format: functional, cell-based, COS-1

Row | Activity [1] | Kb [2] | Kb [3] | Compound
1 | Active | 5.89 nM | 5.5 nM | CCN(c1ccc(C(=O)O)cn1)c1cc(OCC(C)C)c(C(C)C)cc1/C=C/c1ccccc1
2 | inactive | – | – | CCN(c1ccc(C(=O)O)cn1)c1cc(OCC(C)C)c(C(C)C)cc1-c1ccccc1
3 | Active | – | – | CCN(c1ccc(C(=O)O)cn1)c1cc(OCC(C)C)c(C(C)C)cc1Nc1ccccc1
4 | Active | 77.6 nM | – | CCCCCCOc1cc2c(cc1N(C)c1ncc(C(=O)O)cn1)C(C)(C)CCC2(C)C
